Calls of active or inactive are those of the source.
Legend:
Caenorhabditis elegans = experiment: Nematicidal activity against Caenorhabditis elegans assessed as mortality at 100 ug/ml after 24 hr by microscopic analysis; type: functional
Fusarium oxysporum = experiment: Antimicrobial activity against Fusarium oxysporum at 100 ug/ml after 72 hr; type: functional, organism-based
Manduca sexta = experiment: Antifeedant activity against Manduca sexta at 100 ug/ml after 6 days; type: functional
Heliothis virescens = experiment: Antifeedant activity against Heliothis virescens (tobacco budworm) at 100 ug/ml after 6 days; type: functional
Pichia kudriavzevii = experiment: Antimicrobial activity against Pichia kudriavzevii at 100 ug/ml after 72 hr; type: functional
Aspergillus parasiticus = experiment: Antimicrobial activity against Aspergillus parasiticus at 100 ug/ml after 72 hr; type: functional, organism-based
Panagrellus redivivus = experiment: Nematicidal activity against Panagrellus redivivus assessed as mortality at 100 ug/ml after 24 hr by microscopic analysis; type: functional
Aedes aegypti [1] = experiment: Mosquitocidal activity against fourth-instar larvae of Aedes aegypti assessed as mortality after 24 hr; type: functional, organism-based
Candida albicans = experiment: Antimicrobial activity against Candida albicans at 100 ug/ml after 72 hr; type: functional
Candida parapsilosis = experiment: Antimicrobial activity against Candida parapsilosis at 100 ug/ml after 72 hr; type: functional
Aspergillus flavus = experiment: Antimicrobial activity against Aspergillus flavus at 100 ug/ml after 72 hr; type: functional, organism-based
Helicoverpa zea = experiment: Antifeedant activity against Helicoverpa zea (corn earworm) at 100 ug/ml after 6 days; type: functional
Staphylococcus aureus = experiment: Antimicrobial activity against Staphylococcus aureus at 100 ug/ml after 72 hr; type: functional, organism-based
Escherichia coli = experiment: Antimicrobial activity against Escherichia coli at 100 ug/ml after 72 hr; type: functional, organism-based
[2] = test system: Staphylococcus epidermidis; experiment: Antimicrobial activity against Staphylococcus epidermidis at 100 ug/ml after 72 hr; type: functional, organism-based
Aedes aegypti [3] = experiment: Mosquitocidal activity against fourth-instar larvae of Aedes aegypti assessed as mortality at 200 ug/ml after 24 hr; type: functional
Aedes aegypti [4] = experiment: Mosquitocidal activity against fourth-instar larvae of Aedes aegypti assessed as mortality at 100 ug/ml after 24 hr; type: functional

COc1cc(OC)c(OC)cc1C=O
inactive: mortality (Caenorhabditis elegans) | Activity (Fusarium oxysporum) | Activity (Manduca sexta) | Activity (Heliothis virescens) | inhibition zone (IZ) (Pichia kudriavzevii) | Activity (Aspergillus parasiticus) | mortality (Panagrellus redivivus) | mortality (Aedes aegypti [1]) | inhibition zone (IZ) (Candida albicans) | inhibition zone (IZ) (Candida parapsilosis) | Activity (Aspergillus flavus) | Activity (Helicoverpa zea) | Activity (Staphylococcus aureus) | Activity (Escherichia coli) | Activity [2]

C/C=C/c1cc(OC)c(OC)cc1OC [TRANS-ASARONE]
96%: Activity (Heliothis virescens)
43%: mortality at 100 µg/mL (Aedes aegypti [4])
97%: Activity (Helicoverpa zea)
7 mm: zone of inhibition at 100 µg/mL (Pichia kudriavzevii; read-out: IZ)
6 mm: zone of inhibition at 100 µg/mL (Candida albicans; read-out: IZ) | zone of inhibition at 100 µg/mL (Candida parapsilosis; Lodderomyces parapsilosis, read-out: IZ)
100%: mortality at 100 µg/mL (Caenorhabditis elegans) | mortality at 100 µg/mL (Panagrellus redivivus) | mortality at 200 µg/mL (Aedes aegypti [3])
active: mortality (Aedes aegypti [1])
inactive: Activity (Fusarium oxysporum) | Activity (Aspergillus parasiticus) | Activity (Aspergillus flavus) | Activity (Staphylococcus aureus) | Activity (Escherichia coli) | Activity [2]
79%: Activity (Manduca sexta)

CC(C)=CCC/C(C)=C/CO
inactive: mortality (Caenorhabditis elegans) | Activity (Fusarium oxysporum) | Activity (Manduca sexta) | Activity (Heliothis virescens) | inhibition zone (IZ) (Pichia kudriavzevii) | Activity (Aspergillus parasiticus) | mortality (Panagrellus redivivus) | mortality (Aedes aegypti [1]) | inhibition zone (IZ) (Candida albicans) | inhibition zone (IZ) (Candida parapsilosis) | Activity (Aspergillus flavus) | Activity (Helicoverpa zea) | Activity (Staphylococcus aureus) | Activity (Escherichia coli) | Activity [2]

CCCCCCCC/C=C\CCCCCCCC(=O)O
inactive: mortality (Caenorhabditis elegans) | Activity (Fusarium oxysporum) | inhibition zone (IZ) (Pichia kudriavzevii) | Activity (Aspergillus parasiticus) | mortality (Panagrellus redivivus) | mortality (Aedes aegypti [1]) | inhibition zone (IZ) (Candida albicans) | inhibition zone (IZ) (Candida parapsilosis) | Activity (Aspergillus flavus) | Activity (Staphylococcus aureus) | Activity (Escherichia coli) | Activity [2]

Reference: ChEMBL document CHEMBL3045214, “Pest-managing efficacy of trans-asarone isolated from Daucus carota L. seeds” (2002)
